# Patent US20090082368A1, “METHODS OF MODULATING NEUROTROPHIN-MEDIATED ACTIVITY” (PainCeptor Pharma Corporation, priority 2007, published 2009)
# Where two headings read alike, the source gives them in different places.
# Tests used:
# [1] = tested on: NGF-induced ERK phosphorylation; test: Inhibition of NGF-induced Erk 1/2 phosphorylation (pERK); type: cell-based; conditions: Rattus norvegicus, Table 2
# Method: This assay is useful for establishing that the compounds of the invention are functional NGF antagonists, not receptor agonists (an agonist could conceivably block NGF binding but actually activate the receptor). Erk 1/2 is a kinase activated down stream of TrkA and is a well studied member of the NGF-induced signal transduction cascade.
# PC12 cells expressing TrkA and p75 are acutely exposed to 1 ng/mL NGF (15 min; 37° C.; 5% CO2) that is pre-incubated (30 min; room temperature) with or without the compounds. Cells are lysed in Laemmli sample buffer (for SDS-PAGE) or a lysis buffer containing Triton X-100 (for ELISA). Following SDS-PAGE, proteins are electroblotted onto nitrocellulose and immunoprobed for phosphorylated Erk 1 and 2. Blocking and primary antibody incubations of immunoblots are performed in Tris-buffered saline-Tween (10 mM Tris, pH 8.0, 150 mM NaCl, and 0.2% Tween 20) supplemented with 5% (w/v) bovine serum albumin (BSA); secondary antibody incubations are performed in 5% (w/v) dried skim milk powder. Immunoreactive bands are detected by chemiluminescence.
# A quantitative method to detect phosphorylated Erk 1/2 by immunofluorescence is also used. Neuroscreen-1 cells are grown in a 96 well plate. NGF preincubated with or without the compounds for 30 minutes, is added to the cells for 5 minutes at 37° C. Cells are then fixed and stained with an antibody against phosphor-ERK 1/2. A fluorescently labeled secondary antibody is used to show the presence of phosphorylated ERK 1/2. Quantitative results are generated by photographing the wells with light of the appropriate wavelength, followed by software based image analysis.
# [2] = tested on: NGF receptors on PC12 cells (TrkA+p75); test: NGF binding (125I-NGF) using PC12 cells; parameters: species or system rat
# Method: NGF binding was evaluated using methods familiar to those who are skilled in the art. Briefly, cells expressing one or both NGF receptors (PC12: TrkA+p75; A875: p75 alone; HEK/CHO_trkA: TrkA alone) were harvested by replacing the medium with the cell dissociation buffer (Amersham) and incubating at 37° C. for 15 min. […] For most compounds, multiple dose-response curves were generated.
# The IC50 data shown in Tables A-J were acquired using the procedure described herein using PC12 cells.
# [3] = tested on: PC12 cells; test: Inhibition of NGF-induced neurite outgrowth; type: cell-based; conditions: Rattus norvegicus, PC-12, 96 h, Table 3, 4 days exposure to NGF
# Method: This assay is run as a further functional marker of NGF antagonism and takes advantage of the differentiation of PC12 cells (neurite outgrowth) induced by NGF. Cultures of PC12 cells are grown on Terasaki plates pre-coated with poly-D-lysine. Cells are exposed to NGF (1-50 (preferably 5) ng/ml) to induce neurite outgrowth as described elsewhere [LA Greene & AS Tischler, Establishment of a noradrenergic clonal line of rat adrenal pheochromocytoma cells which respond to nerve growth factor, Proc Natl Acad Sci USA. 1976 July; 73(7): 2424-2428]. In addition to NGF, cells are exposed to varying concentration of the compounds or vehicle. Following 4 days of exposure to NGF in the presence or absence of compound, neurite outgrowth is quantified. A neurite is scored if its caliber from origin to terminal is approximately the same and the length is equal to or greater than 1.5 the cell body diameter. The number of neurite bearing cells per total number of viable cells is calculated for each condition; the number of cells with neurites in the presence of NGF (without compound exposure) is considered to represent maximal (100%) outgrowth, to which the inhibitory effect of compounds of the invention on NGF-induced outgrowth is compared.
# [4] = Table A (Formula Ia), NGF binding, PC12 cells, read-out: IC50
# [5] = Table B (Formula Ib), NGF binding, PC12 cells, read-out: IC50
# [6] = Table 3, read-out: NGF Binding Assay IC50
# [7] = Table I (Formula VII), NGF binding, PC12 cells, read-out: IC50
# [8] = Table 2, read-out: NGF Binding Assay IC50
# [9] = Table J (Formula VIII), NGF binding, PC12 cells, read-out: IC50
Compound,IC50 [1],"IC50 [2, 9]",also measured
O=C(O)CCCN1C(=O)c2ccc(-c3ccc4c(c3)C(=O)N(CCCC(=O)O)C4=O)cc2C1=O [Compound 1C],0.1 to 5 µM,,
O=C(O)CCCN1C(=O)c2ccc(C(=O)O)cc2C1=O [Compound 1],,,"IC50 [2, 4]: > 50 µM"
O=C(O)CCCCN1C(=O)c2ccc(C(=O)O)cc2C1=O [Compound 2],,,"IC50 [2, 4]: > 50 µM"
O=C(O)c1ccc(Cl)c(N2C(=O)c3ccc4c5c(ccc(c35)C2=O)C(=O)N(c2cc(C(=O)O)ccc2Cl)C4=O)c1 [Compound 3D],,,IC50 [3]: 0.1 to 5 µM
O=C(O)c1cccc(N2C(=O)c3ccc(C(=O)O)cc3C2=O)c1 [Compound 3],,,"IC50 [2, 4]: > 50 µM"
O=C(O)c1ccc2c(c1)C(=O)N(c1cc(C(=O)O)ccc1Cl)C2=O [Compound 6],,,"IC50 [2, 4]: > 50 µM"
N#Cc1ccc2c(c1)CN(c1cccc(C(=O)O)c1)C2=O [Compound 8A],,,"IC50 [2, 5]: > 50 µM"
O=C(O)CCN1C(=O)c2ccc(-c3ccc4c(c3)C(=O)N(CCC(=O)O)C4=O)cc2C1=O [Compound 9C],5 to 15 µM,,
Nc1ccc(C(=O)O)cc1N1C(=O)c2ccc3c4c(ccc(c24)C1=O)C(=O)N(C(CCC(=O)O)C(=O)O)C3=O (stereo not drawn) [Compound 9D],5 to 15 µM,,IC50 [3]: 0.1 to 5 µM
O=C(O)CCCCN1C(=O)c2ccc(-c3ccc4c(c3)C(=O)N(CCCCC(=O)O)C4=O)cc2C1=O [Compound 10C],0.1 to 5 µM,,
O=C1c2ccc(-c3ccc4c(c3)C(=O)N(CCCS(=O)(=O)O)C4=O)cc2C(=O)N1CCCS(=O)(=O)O [Compound 11C],0.1 to 5 µM,,
"O=C(O)c1cccc(N2Cc3cc(C(=O)O)ccc3C2=O)c1 [Compound 12A, 2-(3-Carboxyphenyl)-1-oxoisoindoline-5-carboxylic acid]",,,"IC50 [2, 6]: 10 to 29 µM; IC50 [2, 5]: 10 to 29 µM; IC50 [3]: 5 to 15 µM"
CCOC(=O)c1cccc(N2Cc3cc(C(=O)O)ccc3C2=O)c1 [Compound 15A],5 to 15 µM,,
CN(C)c1cc2c3c(cc(N(C)C)cc3c1)C(=O)N(CCCC(=O)O)C2=O [Compound 15G],,,"IC50 [2, 7]: 30 to 50 µM"
CC(C)Nc1cc2c3c(cc(NC(C)C)cc3c1)C(=O)N(CCCC(=O)O)C2=O [Compound 16G],,,"IC50 [2, 7]: 10 to 29 µM"
"O=C(O)CCCN1C(=O)c2cc(C(=O)O)cc3cc([N+](=O)[O-])cc(c23)C1=O [Compound 17G, 2-(3-Carboxypropyl)-8-nitro-1,3-dioxo-2,3-dihydro-1H-benzo[de]isoquinoline-5-carboxylic acid]",,,"IC50 [2, 7]: < 10 µM"
"Nc1cc2c3c(cc(C(=O)O)cc3c1)C(=O)N(CCCC(=O)O)C2=O [Compound 18G, 8-Amino-2-(3-carboxypropyl)-1,3-dioxo-2,3-dihydro-1H-benzo[de]isoquinoline-5-carboxylic acid]",,,"IC50 [2, 7]: < 10 µM"
O=C(O)c1ccc(Cl)c(N2C(=O)c3cccc([N+](=O)[O-])c3C2=O)c1 [Compound 18],,,"IC50 [2, 4]: > 50 µM"
O=C(O)CCCCCN1C(=O)c2ccc(-c3ccc4c(c3)C(=O)N(CCCCCC(=O)O)C4=O)cc2C1=O [Compound 19C],0.1 to 5 µM,,
"CC(=O)Nc1cc2c3c(cc(C(=O)O)cc3c1)C(=O)N(CCCC(=O)O)C2=O [Compound 19G, 8-(Acetylamino)-2-(3-carboxypropyl)-1,3-dioxo-2,3-dihydro-1H-benzo[de]isoquinoline-5-carboxylic acid]",5 to 15 µM,,"IC50 [2, 8]: < 10 µM; IC50 [2, 7]: < 10 µM"
N#Cc1cc2c3c(cc(C#N)cc3c1)C(=O)N(CCCC(=O)O)C2=O [Compound 20G],,,"IC50 [2, 7]: < 10 µM"
O=C(O)CCCCCCN1C(=O)c2ccc(-c3ccc4c(c3)C(=O)N(CCCCCCC(=O)O)C4=O)cc2C1=O [Compound 21C],5 to 15 µM,,

Compound,IC50 [1],"IC50 [2, 9]",also measured
O=C(O)c1cccc(N2C(=O)c3cc(-n4cccc4)cc4cc(-n5cccc5)cc(c34)C2=O)c1 [Compound 21G],,,"IC50 [2, 7]: > 50 µM"
O=C(O)CCCCCCCN1C(=O)c2ccc(-c3ccc4c(c3)C(=O)N(CCCCCCCC(=O)O)C4=O)cc2C1=O [Compound 22C],5 to 15 µM,,
O=C(O)CCCN1C(=O)c2ccc(-c3ccc4c(c3)C(=O)N(CCCc3nnn[nH]3)C4=O)cc2C1=O [Compound 23C],0.1 to 5 µM,,
O=C(O)CCCN1C(=O)c2cccc3cccc(c23)C1=O [Compound 26G],,> 50 µM,
"O=C(O)CCCN1C(=O)c2cccc3cc([N+](=O)[O-])cc(c23)C1=O [Compound 27G, 4-(5-Nitro-1,3-dioxo-1H-benzo[de]isoquinolin-2(3H)-yl)butanoic acid]",,< 10 µM,
"Nc1cc2c3c(cccc3c1)C(=O)N(CCCC(=O)O)C2=O [Compound 28G, 4-(5-Amino-1,3-dioxo-1H-benzo[de]isoquinolin-2(3H)-yl)butanoic acid]",,< 10 µM,
CC(=O)Nc1cc2c3c(cccc3c1)C(=O)N(CCCC(=O)O)C2=O [Compound 29G],,< 10 µM,
NC(=O)c1cc2c3c(cccc3c1)C(=O)N(CCCC(=O)O)C2=O [Compound 30G],,10 to 29 µM,
CN(C)S(=O)(=O)c1cc2c3c(cccc3c1)C(=O)N(CCCC(=O)O)C2=O [Compound 31G],,> 50 µM,
N#Cc1cc2c3c(cccc3c1)C(=O)N(CCCC(=O)O)C2=O [Compound 32G],5 to 15 µM,< 10 µM,"IC50 [2, 8]: < 10 µM; IC50 [2, 6]: < 10 µM; IC50 [3]: 5 to 15 µM"
O=C(O)CCCN1C(=O)c2cccc3cc(C(=O)O)cc(c23)C1=O [Compound 33G],,10 to 29 µM,
N#Cc1ccc2c3c(cccc13)C(=O)N(CCCC(=O)O)C2=O [Compound 34G],,10 to 29 µM,
O=C(O)CCCN1C(=O)c2cccc3c([N+](=O)[O-])ccc(c23)C1=O [Compound 35G],,10 to 29 µM,
O=C(O)CCCN1C(=O)c2cccc3c(Br)ccc(c23)C1=O [Compound 36G],,30 to 50 µM,
O=C(O)CCCN1C(=O)c2cccc3c(S(=O)(=O)O)ccc(c23)C1=O [Compound 37G],,> 50 µM,
O=C(O)CCCN1C(=O)c2cccc3c(Cl)ccc(c23)C1=O [Compound 38G],,10 to 29 µM,
O=C(O)CCCN1C(=O)c2cccc3c(C(=O)O)ccc(c23)C1=O [Compound 39G],,10 to 29 µM,
O=C(O)CCCN1C(=O)c2cccc3c(C(=O)c4ccccc4)ccc(c23)C1=O [Compound 40G],,10 to 29 µM,
O=C(O)c1ccc2c(c1)C(=O)N(CCN1C(=O)c3ccc(C(=O)O)cc3C1=O)C2=O [Compound 41C],,,"IC50 ([2]; Table E (Formula IIIA), NGF binding, PC12 cells, read-out: IC50): < 10 µM"
CN(C)S(=O)(=O)c1ccc2c3c(cccc13)C(=O)N(CCCC(=O)O)C2=O [Compound 41G],,< 10 µM,
O=C(O)CCCN1C(=O)c2cccc3cc(-c4cccc(C(=O)O)c4)cc(c23)C1=O [Compound 45G],15 to 25 µM,,
O=C(O)CCCN1C(=O)c2cccc3cc(-c4nnn[nH]4)cc(c23)C1=O [Compound 46G],5 to 15 µM,,IC50 [3]: 5 to 15 µM
